Results taken from PubChem BioAssay AID1963863 (Molecular Pharmacology Branch, DTP, NCI, 2024).

System: 931267-113-T-J1-PDC KRAS spheroid with HUVEC/MSC, viability
Assay: Anticancer human tumor 931267-113-T-J1-PDC patient-derived colon adenocarcinoma cell line growth inhibition [KRAS2]
Details: for IC50: curve of first compound; for viability, T/C: stronger effect = lower value
Procedure, shortened: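 KRAS-mutant tumor cells were grown as spheroids with HUVEC endothelial cells and human MSCs as stroma. Targeted agents were tested alone and with KRAS pathway inhibitors. Doses started at or near clinical Cmax, or 10 microM, descending half-log.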

[1] = second compound 0.1 µM, first compound 0.0316 µM
[2] = second compound 0.1 µM, first compound 0.1 µM
[3] = second compound 0.1 µM, first compound 0.316 µM
[4] = second compound 0.1 µM, first compound 1 µM
[5] = second compound 0.1 µM, first compound 3.16 µM
[6] = second compound 0.1 µM, first compound 10 µM
[7] = second compound 0.316 µM, first compound 0.0316 µM
[8] = second compound 0.316 µM, first compound 0.1 µM
[9] = second compound 0.316 µM, first compound 0.316 µM
[10] = second compound 0.316 µM, first compound 1 µM
[11] = second compound 0.316 µM, first compound 3.16 µM
[12] = second compound 0.316 µM, first compound 10 µM
[13] = second compound 1 µM, first compound 0.0316 µM
[14] = second compound 1 µM, first compound 0.1 µM
[15] = second compound 1 µM, first compound 0.316 µM
[16] = second compound 1 µM, first compound 1 µM
[17] = second compound 1 µM, first compound 3.16 µM
[18] = second compound 1 µM, first compound 10 µM
[19] = second compound 3.16 µM, first compound 0.0316 µM
[20] = second compound 3.16 µM, first compound 0.1 µM
[21] = second compound 3.16 µM, first compound 0.316 µM
[22] = second compound 3.16 µM, first compound 1 µM
[23] = second compound 3.16 µM, first compound 3.16 µM
[24] = second compound 3.16 µM, first compound 10 µM
[25] = second compound 10 µM, first compound 0.0316 µM
[26] = second compound 10 µM, first compound 0.1 µM
[27] = second compound 10 µM, first compound 0.316 µM
[28] = second compound 10 µM, first compound 1 µM
[29] = second compound 10 µM, first compound 3.16 µM
[30] = second compound 10 µM, first compound 10 µM
[31] = second compound 0.1 µM, first compound 0.00316 µM
[32] = second compound 0.1 µM, first compound 0.01 µM
[33] = second compound 0.316 µM, first compound 0.00316 µM
[34] = second compound 0.316 µM, first compound 0.01 µM
[35] = second compound 1 µM, first compound 0.00316 µM
[36] = second compound 1 µM, first compound 0.01 µM
[37] = second compound 3.16 µM, first compound 0.00316 µM
[38] = second compound 3.16 µM, first compound 0.01 µM
[39] = second compound 10 µM, first compound 0.00316 µM
[40] = second compound 10 µM, first compound 0.01 µM
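Note: compound exposure lasted 7 days before the readout.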
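Throughout, for viability, T/C: 100% = DMSO vehicle control viability.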

Structure (SMILES) | IC50 (second compound 0.1 µM) | IC50 (second compound 0.316 µM) | IC50 (second compound 1 µM) | IC50 (second compound 3.16 µM) | IC50 (second compound 10 µM) | viability, T/C [1] | viability, T/C [2] | viability, T/C [3] | viability, T/C [4] | viability, T/C [7] | viability, T/C [8] | viability, T/C [9] | viability, T/C [10] | viability, T/C [13] | viability, T/C [14] | viability, T/C [15] | viability, T/C [19] | viability, T/C [20] | viability, T/C [25] | viability, T/C [26] | also measured
CC(C)NCC(C(=O)N1CCN(c2ncnc3c2C(C)CC3O)CC1)c1ccc(Cl)cc1 (stereo not given) + C=CC(=O)N1CCN(c2nc(=O)n(-c3c(C)ccnc3C(C)C)c3nc(-c4c(O)cccc4F)c(F)cc23)C(C)C1 | 6.74 µM | 5.61 µM | 4.63 µM | 6.03 µM | 1.81 µM | 109% | 97.2% | 85.8% | 89.1% | 95.5% | 83.2% | 80.2% | 75.1% | 95.9% | 96% | 76.8% | 83.7% | 90.6% | 81.4% | 71.4% | viability, T/C [5]: 71.7%; viability, T/C [6]: 38.5%; viability, T/C [11]: 62.5%; viability, T/C [12]: 38.2%; viability, T/C [16]: 71.2%; viability, T/C [17]: 68%; viability, T/C [18]: 28.8%; viability, T/C [21]: 80.6%; viability, T/C [22]: 79.1%; viability, T/C [23]: 64.7%; viability, T/C [24]: 38.3%; viability, T/C [27]: 70.5%; viability, T/C [28]: 49.7%; viability, T/C [29]: 50.7%; viability, T/C [30]: 22.4%
CCN1CCN(Cc2ccc(Nc3ncc(F)c(-c4cc(F)c5nc(C)n(C(C)C)c5c4)n3)nc2)CC1 + C=CC(=O)N1CCN(c2nc(=O)n(-c3c(C)ccnc3C(C)C)c3nc(-c4c(O)cccc4F)c(F)cc23)C(C)C1 | > 1 µM | > 1 µM | > 1 µM | > 1 µM | 0.367 µM | 81.2% | 87.4% | 71.8% | 50.8% | 82.5% | 65.8% | 60.8% | 50.8% | 78.4% | 80.9% | 60.7% | 83.5% | 73.6% | 90.2% | 72.5% | viability, T/C [31]: 103%; viability, T/C [32]: 73.6%; viability, T/C [33]: 95.2%; viability, T/C [34]: 88.3%; viability, T/C [35]: 105%; viability, T/C [36]: 83.1%; viability, T/C [16]: 51%; viability, T/C [37]: 94%; viability, T/C [38]: 90.3%; viability, T/C [21]: 74.3%; viability, T/C [22]: 47.5%; viability, T/C [39]: 89.1%; viability, T/C [40]: 99.9%; viability, T/C [27]: 60.1%; viability, T/C [28]: 4.51%
CCNC(=O)CC1N=C(c2ccc(Cl)cc2)c2cc(OC)ccc2-n2c(C)nnc21 (stereo not given) + C=CC(=O)N1CCN(c2nc(=O)n(-c3c(C)ccnc3C(C)C)c3nc(-c4c(O)cccc4F)c(F)cc23)C(C)C1 | 2.65 µM | 4.87 µM | 4.48 µM | > 10 µM | 4.23 µM | 103% | 97.6% | 80.8% | 68.5% | 88.4% | 81.2% | 68.3% | 59.7% | 120% | 82.8% | 84.4% | 101% | 92.7% | 94.5% | 102% | viability, T/C [5]: 43%; viability, T/C [6]: 40.8%; viability, T/C [11]: 55%; viability, T/C [12]: 44.5%; viability, T/C [16]: 64.1%; viability, T/C [17]: 56.1%; viability, T/C [18]: 40.8%; viability, T/C [21]: 78.6%; viability, T/C [22]: 65.3%; viability, T/C [23]: 59.1%; viability, T/C [24]: 51.8%; viability, T/C [27]: 82.6%; viability, T/C [28]: 74.6%; viability, T/C [29]: 50.7%; viability, T/C [30]: 43%
Cn1ncnc1[C@H]1c2n[nH]c(=O)c3cc(F)cc(c23)N[C@@H]1c1ccc(F)cc1 + C=CC(=O)N1CCN(c2nc(=O)n(-c3c(C)ccnc3C(C)C)c3nc(-c4c(O)cccc4F)c(F)cc23)C(C)C1 | > 0.1 µM | > 0.1 µM | > 0.1 µM | > 0.1 µM | > 0.1 µM | 102% | 93% | – | – | 98.9% | 72.7% | – | – | 94.6% | 80.8% | – | 90.3% | 89.8% | 96% | 102% | viability, T/C (second compound 0.1 µM, first compound 0.000316 µM): 106%; viability, T/C (second compound 0.1 µM, first compound 0.001 µM): 98.3%; viability, T/C [31]: 81.8%; viability, T/C [32]: 92.3%; viability, T/C (second compound 0.316 µM, first compound 0.000316 µM): 110%; viability, T/C (second compound 0.316 µM, first compound 0.001 µM): 110%; viability, T/C [33]: 101%; viability, T/C [34]: 105%; viability, T/C (second compound 1 µM, first compound 0.000316 µM): 117%; viability, T/C (second compound 1 µM, first compound 0.001 µM): 107%; viability, T/C [35]: 93.1%; viability, T/C [36]: 100%; viability, T/C (second compound 3.16 µM, first compound 0.000316 µM): 97.7%; viability, T/C (second compound 3.16 µM, first compound 0.001 µM): 106%; viability, T/C [37]: 98.8%; viability, T/C [38]: 85.1%; viability, T/C (second compound 10 µM, first compound 0.000316 µM): 117%; viability, T/C (second compound 10 µM, first compound 0.001 µM): 103%; viability, T/C [39]: 84.3%; viability, T/C [40]: 99.8%
